The assay addresses T1, GST-tagged ROR gamma ligand binding domain (LBD) (Homo sapiens, UniProt P51449).
T1 construct: purchased Invitrogen
T1 sequence (P51449 269-508 limits assumed): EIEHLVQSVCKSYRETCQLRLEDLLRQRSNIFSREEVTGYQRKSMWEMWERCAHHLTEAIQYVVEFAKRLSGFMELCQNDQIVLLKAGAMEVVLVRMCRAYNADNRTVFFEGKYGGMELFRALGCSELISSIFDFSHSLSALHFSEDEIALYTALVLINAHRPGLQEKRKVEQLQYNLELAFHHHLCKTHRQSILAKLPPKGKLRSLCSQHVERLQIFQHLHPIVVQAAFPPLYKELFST
In words: TR-FRET assay for ROR gamma (LanthaScreen co-activator peptide recruitment). It is filed as biochemical. The settings on record: for inhibition at 1 µM: compound concentration 1 μM; for inhibition at 1 µM / inhibition at 10 µM: TR-FRET ratio 520/495, percent of control; for inhibition at 10 µM: compound concentration 10 μM; for IC50: from dose response curve, nonlinear regression, read-out: IC50 range. An excerpt: The compounds described herein were screened for ROR gamma modulator activity using the TR-FRET assay (LanthaScreen™ available from Invitrogen of Carlsbad, Calif.) as described in JBC 2011, 286, 26: 22707-10; and Drug Metabolism and Disposition 2009, 37, 10: 2069-78.
Binding of the co-activator peptide, causes an increase in the TR-FRET signal while binding of an antagonist decreases the recruitment of the co-activator peptide, causing a decrease in the TR-FRET signal compared to control with no compound. The assay was performed using a two-step procedure, pre-incubation step with the compound followed by the detection step on addition of the anti-GST tagged terbium (Tb) and fluorescein tagged fluorophores as the acceptor.
Test compounds or reference compounds such as T0901317 (Calbiochem) were dissolved in dimethylsulfoxide (DMSO) to prepare 10.0 mM stock solutions and diluted to the desired concentration. The final concentration of DMSO in the reaction was 4% (v/v). The assay mixture was prepared by mixing 10 nM of the GST-tagged ROR gamma ligand binding domain (LBD) in the assay buffer containing 25 mM HEPES (pH 7.4), 100 mM NaCl, 5 mM DTT and 0.01% BSA with or without the desired concentration of the compound. The reaction was incubated at 22° C. for 1 hour. The pre-incubation step was terminated by addition of the detection mixture containing 300 nM Fluorescein-D22 co-activator peptide and 10 nM lantha screen Tb-anti GST antibody into the reaction mixture.
After shaking for 5 minutes the reaction was further incubated for 1 hour at room temperature and read at 4° C. on an Infinite F500 reader as per the kit instructions (Invitrogen). The inhibition of test compound was calculated based on the TR-FRET ratio of 520/495. The activity was calculated as a percent of control reaction. IC50 values were calculated from dose response curve by nonlinear regression analysis using GraphPad Prism software.

Take `CCC(F)(F)c1ccc(CC(=O)Nc2ccc(-c3ccncc3-c3ccc(Cl)cc3)cc2)cc1` [Example 46, N-(4-(3-(4-Chlorophenyl)pyridin-4-yl)phenyl)-2-(4-(1,1-difluoropropyl)phenyl)acetamide]: the inhibition at 1 µM amounted to 70% and the inhibition at 10 µM came to 77.1%.

Turning to `CCC(F)(F)c1ccc(CC(=O)Nc2ccc(-c3nccnc3-c3ccc(C)cc3C)cc2)cc1` [Example 47, 2-(4-(1,1-Difluoropropyl)phenyl)-N-(4-(3-(2,4-dimethylphenyl)pyrazin-2-yl)phenyl)acetamide], the inhibition at 1 µM is 82.3%, the inhibition at 10 µM was found to be 82.3% and the IC50 was less than 50 nM.

As to `CCC(F)(F)c1ccc(CC(=O)Nc2ccc(-c3nccnc3-c3ccc(C)cc3F)cc2)cc1` [Example 48, 2-(4-(1,1-Difluoropropyl)phenyl)-N-(4-(3-(2-fluoro-4-methylphenyl)pyrazin-2-yl)phenyl)acetamide], the inhibition at 1 µM turned out to be 79.2%, the inhibition at 10 µM came out at 84.1% and the IC50 was less than 50 nM.

In the case of `CCC(F)(F)c1ccc(CC(=O)Nc2ccc(-c3nccc(=O)n3-c3ccc(F)cc3Cl)cc2)cc1` [Example 49, N-(4-(1-(2-Chloro-4-fluorophenyl)-6-oxo-1,6-dihydropyrimidin-2-yl)phenyl)-2-(4-(1,1-difluoropropyl)phenyl)acetamide], the inhibition at 1 µM was determined as 84%, the inhibition at 10 µM is 88.8% and the IC50 is less than 50 nM.

On to `CCC(F)(F)c1ccc(CC(=O)Nc2ccc(-c3nccnc3-c3ccc(Cl)cc3Cl)cc2)cc1` [Example 50, N-(4-(3-(2,4-Dichlorophenyl)pyrazin-2-yl)phenyl)-2-(4-(1,1-difluoropropyl)phenyl)acetamide], for which the inhibition at 1 µM was determined as 83.2%, the inhibition at 10 µM is 83% and the IC50 is less than 50 nM.

Turning to `Cc1ccc(-c2nccnc2-c2ccc(NC(=O)Cc3ccc(C(F)(F)C(C)O)cc3)cc2)c(C)c1` (stereo not drawn) [Example 51, 2-(4-(1,1-Difluoro-2-hydroxypropyl)phenyl)-N-(4-(3-(2,4-dimethylphenyl)pyrazin-2-yl)phenyl)acetamide], the inhibition at 1 µM is 73.2%, the inhibition at 10 µM came to 81% and the IC50 was less than 50 nM.

`CCc1ccccc1-c1nccnc1-c1ccc(NC(=O)Cc2ccc(C(F)(F)[C@H](C)O)cc2)cc1` [Example 52, (S)-2-(4-(1,1-difluoro-2-hydroxypropyl)phenyl)-N-(4-(3-(2-ethylphenyl)pyrazin-2-yl)phenyl)acetamide]: the inhibition at 1 µM came out at 78.6%, the inhibition at 10 µM worked out at 84% and the half-maximal inhibitory concentration (IC50) is less than 50 nM.

Take `CCc1ccccc1-c1nccnc1-c1ccc(NC(=O)Cc2ccc(C(F)(F)[C@@H](C)O)cc2)cc1` [Example 53, (R)-2-(4-(1,1-difluoro-2-hydroxypropyl)phenyl)-N-(4-(3-(2-ethylphenyl)pyrazin-2-yl)phenyl)acetamide]: the inhibition at 1 µM was found to be 70.5%, the inhibition at 10 µM was determined as 77% and the IC50 was less than 50 nM.

With `CC(O)C(F)(F)c1ccc(CC(=O)Nc2ccc(-c3nccnc3N3CCN(C(=O)C4CC4)CC3)cc2)cc1` (stereo not drawn) [Example 54, N-(4-(3-(4-(Cyclopropanecarbonyl)piperazin-1-yl)pyrazin-2-yl)phenyl)-2-(4-(1,1-difluoro-2-hydroxypropyl)phenyl)acetamide], the inhibition at 1 µM was 23.1% and the inhibition at 10 µM is 42.4%.

Consider `CCC(F)(F)c1ccc(CC(=O)Nc2ccc(-c3nccnc3N(C)c3ccc(Cl)cc3)cc2)cc1` [Example 55, N-(4-(3-((4-Chlorophenyl)(methyl)amino)pyrazin-2-yl)phenyl)-2-(4-(1,1-difluoropropyl)phenyl)acetamide], for which the inhibition at 1 µM worked out at 56.5% and the inhibition at 10 µM came to 64.6%.

In the case of `CCC(F)(F)c1ccc(CC(=O)Nc2ccc(-c3nccnc3N(C)Cc3ccccc3)cc2)cc1` [Example 56, N-(4-(3-(Benzyl(methyl)amino)pyrazin-2-yl)phenyl)-2-(4-(1,1-difluoropropyl)phenyl)acetamide], the inhibition at 1 µM is 73.4%, the inhibition at 10 µM was 85.8% and the IC50 lay in the range of 100 to 500 nM.

`CCC(F)(F)c1ccc(CC(=O)Nc2ccc(-c3nccnc3NCc3ccccc3)cc2)cc1` [Example 57, N-(4-(3-(Benzylamino)pyrazin-2-yl)phenyl)-2-(4-(1,1-difluoropropyl)phenyl)acetamide]: the inhibition at 1 µM was 69.4% and the inhibition at 10 µM is 85.2%.

As for `CCC(F)(F)c1ccc(CC(=O)Nc2ccc(-c3nccnc3NC(C)c3ccccc3)cc2)cc1` (stereo not drawn) [Example 58, 2-(4-(1,1-Difluoropropyl)phenyl)-N-(4-(3-((1-phenylethyl)amino)pyrazin-2-yl)phenyl)acetamide], the inhibition at 1 µM stood at 80.3%, the inhibition at 10 µM is 90.7% and the IC50 was in the range of 100 to 500 nM.

Regarding `CCC(F)(F)c1ccc(CC(=O)Nc2ccc(-c3nccnc3N[C@H](C)c3ccccc3)cc2)cc1` [Example 59, (R)-2-(4-(1,1-Difluoropropyl)phenyl)-N-(4-(3-((1-phenylethyl)amino)pyrazin-2-yl)phenyl)acetamide], the inhibition at 1 µM is 58.6% and the inhibition at 10 µM was determined as 79.7%.

With `CCC(F)(F)c1ccc(CC(=O)Nc2ccc(-c3nccnc3N(C)[C@H](C)c3ccccc3)cc2)cc1` [Example 60, (R)-2-(4-(1,1-Difluoropropyl)phenyl)-N-(4-(3-(methyl(1-phenylethyl)amino)pyrazin-2-yl)phenyl)acetamide], the inhibition at 1 µM was 69.6%, the inhibition at 10 µM amounted to 83% and the IC50 fell in the range of 100 to 500 nM.

Take `CCC(F)(F)c1ccc(CC(=O)Nc2ccc(-c3nccnc3N[C@@H](C)c3ccccc3)cc2)cc1` [Example 61, (S)-2-(4-(1,1-Difluoropropyl)phenyl)-N-(4-(3-((1-phenylethyl)amino)pyrazin-2-yl)phenyl)acetamide]: the inhibition at 1 µM was found to be 84.2%, the inhibition at 10 µM was 91.4% and the IC50 lay in the range of 50 to 100 nM.

For `CCC(F)(F)c1ccc(CC(=O)Nc2ccc(-c3nccnc3N(C)[C@@H](C)c3ccccc3)cc2)cc1` [Example 62, (S)-2-(4-(1,1-Difluoropropyl)phenyl)-N-(4-(3-(methyl(1-phenylethyl)amino)pyrazin-2-yl)phenyl)acetamide], the inhibition at 1 µM turned out to be 65.6% and the inhibition at 10 µM is 84.8%.

For `CCC(F)(F)c1ccc(CC(=O)Nc2ccc(-c3nccnc3N[C@@H](C)c3ccc(Cl)cc3)cc2)cc1` [Example 63, (S)-N-(4-(3-((1-(4-Chlorophenyl)ethyl)amino)pyrazin-2-yl)phenyl)-2-(4-(1,1-difluoropropyl)phenyl)acetamide], the inhibition at 1 µM amounted to 86.8%, the inhibition at 10 µM stood at 91.2% and the half-inhibitory concentration (IC50) lay in the range of 50 to 100 nM.

On to `CCC(F)(F)c1ccc(CC(=O)Nc2ccc(-c3nccnc3N[C@@H](C)c3cccc(Cl)c3)cc2)cc1` [Example 64, (S)-N-(4-(3-((1-(3-Chlorophenyl)ethyl)amino)pyrazin-2-yl)phenyl)-2-(4-(1,1-difluoropropyl)phenyl)acetamide], for which the inhibition at 1 µM came out at 76.2%, the inhibition at 10 µM worked out at 84.9% and the 50% inhibitory concentration (IC50) lay in the range of 100 to 500 nM.

In the case of `CCC(F)(F)c1ccc(CC(=O)Nc2ccc(-c3nccnc3N(C)[C@@H](C)c3ccc(Cl)cc3)cc2)cc1` [Example 65, (S)-N-(4-(3-((1-(4-Chlorophenyl)ethyl)(methyl)amino)pyrazin-2-yl)phenyl)-2-(4-(1,1-difluoropropyl)phenyl)acetamide], the inhibition at 1 µM turned out to be 76.1%, the inhibition at 10 µM was 83.2% and the half-maximal inhibitory concentration (IC50) was 100 to 500 nM.

With `CCC(F)(F)c1ccc(CC(=O)Nc2ccc(-c3nccnc3N[C@@H](C)c3ccccc3Cl)cc2)cc1` [Example 66, (S)-N-(4-(3-((1-(2-Chlorophenyl)ethyl)amino)pyrazin-2-yl)phenyl)-2-(4-(1,1-difluoropropyl)phenyl)acetamide], the inhibition at 1 µM was 88.4%, the inhibition at 10 µM was 90.2% and the concentration for half-maximal inhibition (IC50) is less than 50 nM.

For the compound `CCC(F)(F)c1ccc(CC(=O)Nc2ccc(-c3nccnc3N[C@@H](C)c3ccc(F)cc3C)cc2)cc1` [Example 67, (S)-2-(4-(1,1-Difluoropropyl)phenyl)-N-(4-(3-((1-(4-fluoro-2-methylphenyl)ethyl)amino)pyrazin-2-yl)phenyl)acetamide], the inhibition at 1 µM is 87.9%, the inhibition at 10 µM worked out at 92.4% and the IC50 was less than 50 nM.

Usually inhibition stands for the share of the control response that was lost under treatment. The term IC50 denotes the concentration that inhibits the measured activity by half.
